Source: patent publication US20130023587A1, “COMPOSITIONS AND METHODS FOR THE TREATMENT OF CANCER” (DUKE UNIVERSITY, priority 2010, published 2013)
Entries after “also recorded” stand apart in the source; their conditions may differ.

What was measured:
R3230 cells [1] = experiment: Clonogenic assay; type: cell-based, rat
Description: Cells were washed and returned to normal growth medium. 14 days later, colonies were stained with crystal violet and counted.

MCT-1 = molecular target: T1, MCT-1 (Rattus norvegicus, UniProt P53987); experiment: 13C NMR of lactate uptake and catabolism to alanine and glutamate in R3230 cells; type: cell-based; conditions: 5 mM CHC
T1 construct: endogenous in cells; host or cells: R3230 rat mammary carcinoma cells
T1 sequence (P53987 1-494): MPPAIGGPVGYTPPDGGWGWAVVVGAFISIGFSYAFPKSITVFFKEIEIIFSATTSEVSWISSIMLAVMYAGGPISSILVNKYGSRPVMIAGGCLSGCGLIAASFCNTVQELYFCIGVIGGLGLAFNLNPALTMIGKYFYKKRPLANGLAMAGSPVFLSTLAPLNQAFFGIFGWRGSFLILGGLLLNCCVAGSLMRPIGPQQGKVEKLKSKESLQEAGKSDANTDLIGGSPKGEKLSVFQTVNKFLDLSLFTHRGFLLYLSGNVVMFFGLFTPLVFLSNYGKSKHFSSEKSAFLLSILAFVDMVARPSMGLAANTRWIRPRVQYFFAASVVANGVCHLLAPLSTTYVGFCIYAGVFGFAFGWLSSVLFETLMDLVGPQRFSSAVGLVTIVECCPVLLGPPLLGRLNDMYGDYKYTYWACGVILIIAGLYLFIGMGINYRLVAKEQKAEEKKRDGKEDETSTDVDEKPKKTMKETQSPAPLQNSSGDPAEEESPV
Experimental: ^1H-NMR and ^13C-NMR: R3230 cells were grown to 60% confluency. Cells were washed and exposed to DMEM with varying concentrations of ^13C-methyl labeled L-lactate solution (Sigma, St. Louis, Mo.), without serum and glucose. Cells were washed, mounted with 60% perchloric acid, scraped down, and centrifuged at 8,000 G for 5 min; PBS (20% vol/vol) and 98% deuterated water (10% vol/vol) (Sigma, St. Louis, Mo.) were added to supernatants to a total of 600 uL for NMR. For medium sample analysis, 10% vol/vol deuterated water was added to the medium before NMR analysis. NMR spectra were recorded on a Varian 500 MHz VNMRS spectrometer equipped with a Dell Optiplex 755 data system and a 5 mm Varian inverse probe. ^1H NMR spectra were obtained with a spectral width (SW) of 5.5 kHz, a 67 pulse flip angle (6 us), a 6.4 s acquisition time (AT), a 2 sec water presaturation pulse and relaxation delay (RD), and digitized using 64000 points to obtain a digital resolution of 0.172 Hz per point. ^1H-decoupled ^13C spectra were recorded at 125 MHz with a 32051.3 Hz SW, a 60 pulse flip angle (6.5 us), a 2.0 s AT, a 0.7 s RD and digitized into 130,000 points to yield a digital resolution of 0.493 Hz per point.

R3230 cells [2] = experiment: Survival of R3230 cells by counts of attached cells; type: cell-based, rat
Experimental: (F) Effect of Na-lactate concentration on cellular NAD/NADH ratio (expressed as light absorbance ratio, 260/340 nm).
(§1) Tissue culture and measurement of metabolic rates: The R3230 rat mammary carcinoma was originally derived from a spontaneous mammary carcinoma of the Fischer 344 rat (Hilf et al, 1965; Lindberg et al, 1996). Cells were exposed to 6% or 0.5% oxygen (Vaupel et al, 1991) at 37° C., and […] in glucose- and serum-free DMEM, while dishes were placed on a slow-moving rocker. Cells were counted and media samples were collected at the beginning and end of the experiment, and analyzed for glucose and lactate content using a CMA microdialysis analyzer (CMA, Sweden).

R3230 cells [3] = experiment: Measurement of metabolic rates (glucose consumption) in cultured R3230 cells; type: cell-based, rat
Experimental: as §1

R3230 cells [4] = experiment: Measurement of redox changes (NAD+/NADH optical density 260/340 nm); type: cell-based, rat; conditions: within 2 minutes after isovolumic addition
Experimental: Measurement of redox changes: Cells were trypsinized, washed, and brought to 5×10^6/mL in PBS. 1 mL of cell suspension was scanned for optical density in a cuvette at 260 nm (NAD^+) and 340 nm (NADH+H^+). Various concentrations of Na-lactate in PBS were added at 20 μL/mL.

R3230 cells [5] = experiment: pHi measurements with BCECF-AM; type: cell-based, rat; conditions: fluorescent dye BCECF-AM
Experimental: pHi measurements: Cells were grown on glass coverslides and incubated with BCECF-AM (Invitrogen) at 5 μM for 20 min, and imaged on an inverted fluorescence microscope, with excitation at 440 and 490 nm, emission 535 nm. Ratiometric pH calibration was done in mixture ratios of buffers containing 110 mM K2HPO4 or 135 mM KH2PO4, and 20 mM NaCl, respectively. Nigericin was added at 10 μM (Franck et al, 1996) and pH expressed as ratios of grayscale values from stacks of calibration images taken from the nigericin-treated cells, imaged at 440 and 490 nm (Franck et al, 1996).

R3230 Ac = experiment: Uptake kinetics of 14C-lactate or 14C-glucose in vivo (3-compartment model); set-up: species or system rat; conditions: 14C-labeled metabolite infused i.v., fitted rate constant
Experimental: Uptake kinetics of ^14C-lactate in vivo: Kinetics of ^14C-lactate or ^14C-glucose uptake were studied using a novel implantable fiber optic radiation detection probe provided by Sicel Technologies Inc., Durham, N.C. Time uptake curves from tumor, subcutaneous, and blood compartments were analyzed using a 3-compartment model from which were derived parameters related to the transfer coefficients in and out of the tumor and blood clearance (see Supplemental methods for detail). The apparatus detected beta radiation from ^14C, which is proportional to ^14 C-lactate or ^14C-glucose concentration. Probes were inserted into tumors of anesthetized rats (Isoflurane as above) and subcutaneous tissue as a control. Each probe was calibrated using ^14C-glucose solutions of known concentration (μCi/mL) immediately before the experiment. After a stabilization period of 50 min, 50 μCi of ^14C-lactate or ^14C-glucose was infused intravenously. Data were recorded in two-minute intervals over 3 h. Baseline (background, dark current values) were subtracted from each time point.
Normalization to the calibration solution was done to control for variations in probe performance and length of probe used in different tumors. The relationship between photons detected and concentration (μCi/mL) was linear, based on experiments done by the company. Data were graphed as the change in μCi/mL over time, and normalized to dose/body weight (μCi/g) to obtain a standardized uptake value (SUV).
In separate animals, blood samples (300 μL-500 μL) were taken at 0, 4, 7, 10, 15, 25, 30, 60, 100, and 160 minutes from the arterial cannula following ^14C-radioisotope infusion. Samples were centrifuged, and plasma collected and weighed. Plasma activities were measured in a liquid scintillation counter (Packard Tri-Carb 1500, Perkin Elmer Life and Analytical Sciences Inc., Boston Mass.) and isotope concentrations (μCi/g) were calculated. Blood activity data were normalized to dose/body weight. Time uptake curves from tumor, subcutaneous, and blood compartments were analyzed using a 3-compartmental model.
The equations defining tracer kinetics were the following:
dCp/dt=−(k1+k4+k0)Cp+k2Ct+k5Cs (1)
Cp, Ci, and Cs were the tracer concentration in central blood compartment, tumor cells, and subcutaneous tissue, respectively. Ct was the measured compound concentration in tumor. Vb was the vascular volume fraction. Due to the nature of the measurement, the tumor probe collected photon counts from both tumor cells and nearby vasculature. The last equation described vascular contribution to the overall photon counts in the tumor tissue. Ki was the transfer constant between each compartment. The averaged isotope concentration in plasma was used to create an empirical blood curve to be used in the model. […]

| Structure (SMILES) | effect on clonogenic survival, higher concentrations of CHC (R3230 cells [1]; any ambient lactate) | effect on clonogenic survival, low concentrations of CHC (R3230 cells [1]; high ambient lactate (>5mM) versus low lactate (0-5 mM)) | effect on lactate catabolism to alanine and glutamate (MCT-1; 40 mM 13C-lactate, 24 h, glucose/serum free) | effect on lactate uptake, low lactate (MCT-1; lactate 5 mM) | effect on lactate uptake, high lactate (MCT-1; lactate 40 mM) | effect on survival under glucose starvation (R3230 cells [2]; lactate 2.5 mM) | Na-lactate concentration leading to decreased survival (counts of attached cells) (R3230 cells [2]; under glucose deprivation) [mM] | effect of escalated extracellular lactate on glucose consumption (R3230 cells [3]; glucopenic conditions) | inhibition of glucose consumption (R3230 cells [3]; glucose 0.2 mM, 18 hr incubation, 6% O2) [%] | effect on NAD+/NADH2+ (reductive stress) (R3230 cells [4]) | effect on intracellular pH (R3230 cells [5]) | K1 Transfer rate into tumor (R3230 Ac; R3230 Ac tumour-bearing rats) | K2 Transfer rate out of tumor (R3230 Ac; R3230 Ac tumour-bearing rats) | K4 Transfer rate into SQ (R3230 Ac; subcutaneous tissue) | K5 Transfer rate out of SQ (R3230 Ac; subcutaneous tissue) |
| --- | --- | --- | --- | --- | --- | --- | --- | --- | --- | --- | --- | --- | --- | --- | --- |
| N#CC(=Cc1ccc(O)cc1)C(=O)O [CHC, α-cyano-4-hydroxycinnamate] | cytotoxic, independent of ambient lactate | selectively reduced R3230 clonogenic survival at high ambient lactate | effectively inhibited catabolism of lactate to glutamate and alanine; also recorded: inhibited breakdown of lactate and conversion into alanine and glutamate | effectively inhibited lactate uptake | lactate uptake persisted | – | – | – | – | – | – | – | – | – | – |
| CC(O)C(=O)O (stereo not drawn) [Lactate, lactate] | – | – | – | – | – | rendered a survival advantage | > 2.5 | inhibited glucose consumption in a concentration-dependent manner | 41 | concentration-dependent drop | concentration-dependent reduction of intracellular pH | 0.2381 | 0.06182 | 0.00144 | 0.07439 |
